Source: patent publication US5053333A, “Protease” (M & D Research Co., Ltd., priority 1988, dated 1991)
Numbered stars: 1 amine (or outer) side, 2 acyl side, 3 side chain; on linkers, the order of the positions; unused ones are H or OH. Peptide text beside a SMILES is read from it. * marks the point of attachment. AMC = Cc1cc(=O)oc2cc(N*)ccc12; Suc = O=C(CCC(=O)[*:2])[*:1]; Boc = CC(C)(C)OC(=O)*; CO = O=C([*:1])[*:2]

Experiments:
[1] = tested on: Benz-I (protease specific for basic amino acid residue); experiment: Behavior of Benz-I against various inhibitors (residual activity); type: biochemical, Kluyveromyces lactis IFO 1903; details: 25° C. 30 minutes, control lot = 100
[2] = tested on: protease specific for basic amino acid residue from Sporobolomyces odrus IFO 1597; experiment: Behavior of Sporobolomyces protease against various inhibitors (residual activity); type: biochemical; details: 25° C. 30 minutes
[3] = tested on: Benz-II (protease specific for basic amino acid residue); experiment: Behavior of Benz-II against various inhibitors (residual activity); type: biochemical, Kluyveromyces lactis IFO 1903; details: 25° C. 30 minutes, control lot = 100
[4] = tested on: protease specific for basic amino acid residue from Sporobolomyces odrus IFO 1597; experiment: Substrate specificity of Sporobolomyces protease with fluorescent substrates; type: biochemical; details: activity for Boc-Gln-Arg-Arg-MCA being 100; standard conditions
Experimental: A reaction mixture containing 50 μmol of tris hydrochloride buffer solution (pH 7.0), 10 mg of Lubrol PX, 0.5 μmol of calcium chloride, 0.1 μmol of Boc-Gln-Arg-Arg-MCA, wherein Boc represents a t-butyloxycalbonyl group while MCA represents 4-methylcoumarin-7-amide and the enzyme is allowed to react at 30° C. The fluorescence (excition wavelength: 380 nm, emission wavelength: 460 nm) originating from the 7-amino-4-methylcoumarin (AMC) thus formed is monitored. The amount of the enzyme capable of catalyzing the release of 1 nmol of AMC per one minute is defined as 1 U.
The activities of the enzyme for various fluorescent substrates were determined under standard reaction conditions.

Molecule: CC(C)C[C@H](NC(=O)[C@H]1O[C@@H]1C(=O)O)C(=O)NCCCCNC(=N)N [E-64]
- Residual activity of Benz-I ([1]; inhibitor 10 μM): 99
- relative activity (residual) ([2]; Ca2+ +, inhibitor 10 μM): 100%
- Residual activity of Benz-II ([3]; inhibitor 10 μM): 96

Molecule: OCCS [2-mercaptoethanol]
- Residual activity of Benz-I ([1]; inhibitor 1 mM): 112
- relative activity (residual) ([2]; Ca2+ +, inhibitor 1 mM): 95%
- Residual activity of Benz-II ([3]; inhibitor 1 mM): 153

Molecule: CCCCCCCCCCCCOS(=O)(=O)[O-].[Na+] [sodium dodecyl sulfate]
- Residual activity of Benz-I ([1]; inhibitor 0.1%): 94
- Residual activity of Benz-II ([3]; inhibitor 0.1%): 91

Molecule: Cc1cc(=O)oc2cc(NC(=O)[C@H](CCCNC(=N)N)NC(=O)[C@H](Cc3ccccc3)NC(=O)[C@@H]3CCCN3)ccc12 [Pro--Phe--Arg--MCA] (H-Pro-Phe-Arg-{AMC})
- Activity (relative) for substrate [4]: 0%

Molecule: NC(N)=O [urea]
- Residual activity of Benz-I ([1]; inhibitor 4 M): 23
- Residual activity of Benz-II ([3]; inhibitor 4 M): 29

Molecule: c1cnc2c(c1)ccc1cccnc12 [o-phenanthroline]
- Residual activity of Benz-I ([1]; inhibitor 1 mM): 96
- relative activity (residual) ([2]; Ca2+ --, inhibitor 1 mM): 91%
- Residual activity of Benz-II ([3]; inhibitor 1 mM): 86

Molecule: chymostatin
- Residual activity of Benz-I ([1]; inhibitor 10 μM): 98
- relative activity (residual) ([2]; Ca2+ +, inhibitor 10 μM): 98%
- Residual activity of Benz-II ([3]; inhibitor 10 μM): 99

Molecule: Cc1cc(=O)oc2cc(NC(=O)[C@H](CCCNC(=N)N)NC(=O)c3ccccc3)ccc12 [Bz--Arg--MCA]
- Activity (relative) for substrate [4]: 0%

Molecule: Cc1cc(=O)oc2cc(NC(=O)[C@H](CCCCN)NC(=O)[C@H](CC(C)C)NC(=O)[C@@H](NC(=O)OC(C)(C)C)C(C)C)ccc12 [Boc--Val--Leu--Lys--MCA] (Boc-Val-Leu-Lys-{AMC})
- Activity (relative) for substrate [4]: 0%

Molecule: N=C(N)c1ccccc1 [benzamidine]
- Residual activity of Benz-I ([1]; inhibitor 1 mM): 79
- relative activity (residual) ([2]; Ca2+ +, inhibitor 1 mM): 82%
- Residual activity of Benz-II ([3]; inhibitor 1 mM): 82

Molecule: Cc1cc(=O)oc2cc(NC(=O)[C@@H](N)CC(C)C)ccc12 [Leu--MCA]
- Activity (relative) for substrate [4]: < 1%

Molecule: O[C@H](CS)[C@H](O)CS (racemic) [dithiothreitol]
- Residual activity of Benz-I ([1]; inhibitor 1 mM): 96
- relative activity (residual) ([2]; Ca2+ +, inhibitor 1 mM): 97%
- Residual activity of Benz-II ([3]; inhibitor 1 mM): 128

Molecule: CCN1C(=O)C=CC1=O [N-ethylmaleimide]
- Residual activity of Benz-I ([1]; inhibitor 1 mM): 101
- relative activity (residual) ([2]; Ca2+ +, inhibitor 1 mM): 125%
- Residual activity of Benz-II ([3]; inhibitor 1 mM): 94

Molecule: Cc1cc(=O)oc2cc(NC(=O)[C@H](Cc3ccccc3)NC(=O)[C@@H]3CCCN3C(=O)[C@H](C)NC(=O)[C@H](C)NC(=O)CCC(=O)O)ccc12 [Suc--Ala--Ala--Pro--Phe--MCA] (Suc-AAPF-{AMC})
- Activity (relative) for substrate [4]: < 1%

Molecule: CC(C)[C@H](NC(=O)[C@H](CCCNC(=N)N)NC(=O)N[C@@H](Cc1ccccc1)C(=O)O)C(=O)N[C@H](C=O)CCCNC(=N)N [antipain] ({Phe-CO}-Arg-Val-Arg-aldehyde)
- Residual activity of Benz-I ([1]; inhibitor 10 μM): 89
- relative activity (residual) ([2]; Ca2+ +, inhibitor 10 μM): 70%
- Residual activity of Benz-II ([3]; inhibitor 10 μM): 88

Molecule: O=S(=O)(F)Cc1ccccc1 [phenylmethanesulfonyl fluoride]
- Residual activity of Benz-I ([1]; inhibitor 1 mM): 107
- relative activity (residual) ([2]; Ca2+ +, inhibitor 1 mM): 112%
- Residual activity of Benz-II ([3]; inhibitor 1 mM): 103

Molecule: CC[C@H](C)[C@H](NC(=O)OC(C)(C)C)C(=O)N[C@@H](CCC(=O)O)C(=O)NCC(=O)N[C@@H](CCCNC(=N)N)C(=O)Nc1ccc2c(C)cc(=O)oc2c1 [Boc--Ile--Glu--Gly--Arg--MCA] (Boc-IEGR-{AMC})
- Activity (relative) for substrate [4]: 5%

Molecule: CCCCC(NC(=O)C=[N+]=[N-])C(=O)OC (racemic) [diazoacetyl-DL-norleucine methyl ester]
- Residual activity of Benz-I ([1]; inhibitor 5 mM): 85
- relative activity (residual) ([2]; Ca2+ +, inhibitor 5 mM): 72%
- Residual activity of Benz-II ([3]; inhibitor 5 mM): 73
